Results: patent US11414379B2, “SPAK kinase inhibitors as neuroprotective agents” (United States Government as represented by the Department …, priority 2018, dated 2022)

Legend:
Test in all cases: Kinase panel (Dundee profiling)
Type in all cases: biochemical
Conditions in all cases: read-out: % residual kinase activity
HIPK2 = HIPK2 (Homo sapiens, UniProt Q9H2X6)
Summary of the method: (§1)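 Recombinant kinases; radioisotopic activity read-out; compound 10 μM and 1 μM; result = % residual activity vs DMSO, mean±SEM (n=3).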

IRAK4 = IRAK4 (Homo sapiens, UniProt Q9NWZ3)
Summary of the method: as §1

PIM3 = PIM3 (Homo sapiens, UniProt Q86V86)
Summary of the method: as §1

PKCγ = PKCγ (Homo sapiens, UniProt P05129)
Summary of the method: as §1

RSK1 = RSK1 (Homo sapiens, UniProt Q15418)
Summary of the method: as §1

MAP4K3 = MAP4K3 (Homo sapiens, UniProt Q8IVH8)
Summary of the method: as §1

CHK1 = CHK1 (Homo sapiens, UniProt O14757)
Summary of the method: as §1

TLK1 = TLK1 (Homo sapiens, UniProt Q9UKI8)
Summary of the method: as §1

CK2 = CK2 (Homo sapiens, UniProt P68400)
Summary of the method: as §1

JAK2 = JAK2 (Homo sapiens, UniProt O60674)
Summary of the method: as §1

DYRK3 = DYRK3 (Homo sapiens, UniProt O43781)
Summary of the method: as §1

IKKb = IKKb (Homo sapiens, UniProt O14920)
Summary of the method: as §1

MST3 = MST3 (Homo sapiens, UniProt Q9Y6E0)
Summary of the method: as §1

p38g MAPK = p38g MAPK (Homo sapiens, UniProt P53778)
Summary of the method: as §1

ZAP70 = ZAP70 (Homo sapiens, UniProt P43403)
Summary of the method: as §1

MARK4 = MARK4 (Homo sapiens, UniProt Q96L34)
Summary of the method: as §1

PAK4 = PAK4 (Homo sapiens, UniProt O96013)
Summary of the method: as §1

PKD1 = PKD1 (Homo sapiens, UniProt Q15139)
Summary of the method: as §1

MAP4K5 = MAP4K5 (Homo sapiens, UniProt Q9Y4K4)
Summary of the method: as §1

PKCa = PKCa (Homo sapiens, UniProt P17252)
Summary of the method: as §1

STK33 = STK33 (Homo sapiens, UniProt Q9BYT3)
Summary of the method: as §1

PKCz = PKCz (Homo sapiens, UniProt Q05513)
Summary of the method: as §1

PAK6 = PAK6 (Homo sapiens, UniProt Q9NQU5)
Summary of the method: as §1

SIK3 = SIK3 (Homo sapiens, UniProt Q9Y2K2)
Summary of the method: as §1

PDGFRA = PDGFRA (Homo sapiens, UniProt P16234)
Summary of the method: as §1

MNK1 = MNK1 (Homo sapiens, UniProt Q9BUB5)
Summary of the method: as §1

PDK1 = PDK1 (Homo sapiens, UniProt O15530)
Summary of the method: as §1

RIPK2 = RIPK2 (Homo sapiens, UniProt O43353)
Summary of the method: as §1

ULK1 = ULK1 (Homo sapiens, UniProt O75385)
Summary of the method: as §1

MELK = MELK (Homo sapiens, UniProt Q14680)
Summary of the method: as §1

ABL = ABL (Homo sapiens, UniProt P00519)
Summary of the method: as §1

NEK6 = NEK6 (Homo sapiens, UniProt Q9HC98)
Summary of the method: as §1

IKKb, sequence (O14920 whole entry, species assumed): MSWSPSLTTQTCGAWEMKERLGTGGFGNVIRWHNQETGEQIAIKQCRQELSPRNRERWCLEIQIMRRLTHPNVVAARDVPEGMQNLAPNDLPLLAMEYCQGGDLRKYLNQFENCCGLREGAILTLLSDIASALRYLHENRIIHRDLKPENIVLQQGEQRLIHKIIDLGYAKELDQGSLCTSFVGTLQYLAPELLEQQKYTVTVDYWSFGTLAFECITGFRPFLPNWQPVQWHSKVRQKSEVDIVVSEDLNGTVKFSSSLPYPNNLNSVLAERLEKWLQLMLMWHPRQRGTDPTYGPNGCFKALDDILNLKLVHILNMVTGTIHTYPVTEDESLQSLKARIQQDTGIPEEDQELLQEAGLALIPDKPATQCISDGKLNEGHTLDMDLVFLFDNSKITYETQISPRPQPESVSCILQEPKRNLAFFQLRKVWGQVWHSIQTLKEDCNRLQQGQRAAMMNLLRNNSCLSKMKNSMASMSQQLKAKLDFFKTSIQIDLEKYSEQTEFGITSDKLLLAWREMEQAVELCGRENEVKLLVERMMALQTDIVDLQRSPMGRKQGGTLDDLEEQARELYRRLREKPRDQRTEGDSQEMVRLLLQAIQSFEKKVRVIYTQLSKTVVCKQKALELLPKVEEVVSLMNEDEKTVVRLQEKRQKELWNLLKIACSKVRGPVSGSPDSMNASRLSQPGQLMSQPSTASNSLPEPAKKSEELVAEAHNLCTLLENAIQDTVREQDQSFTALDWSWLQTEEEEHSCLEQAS
CK2, sequence (P68400 whole entry): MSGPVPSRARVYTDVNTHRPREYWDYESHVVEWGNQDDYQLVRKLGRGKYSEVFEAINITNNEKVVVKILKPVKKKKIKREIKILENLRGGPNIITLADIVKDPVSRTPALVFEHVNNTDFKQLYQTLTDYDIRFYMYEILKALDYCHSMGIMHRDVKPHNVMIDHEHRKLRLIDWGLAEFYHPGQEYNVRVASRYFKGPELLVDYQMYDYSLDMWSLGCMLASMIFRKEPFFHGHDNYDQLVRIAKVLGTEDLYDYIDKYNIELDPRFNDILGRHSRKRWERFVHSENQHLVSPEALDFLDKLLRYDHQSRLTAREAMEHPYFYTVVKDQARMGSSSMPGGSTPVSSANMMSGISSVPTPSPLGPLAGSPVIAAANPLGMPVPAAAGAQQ
MNK1, sequence (Q9BUB5 whole entry, species assumed): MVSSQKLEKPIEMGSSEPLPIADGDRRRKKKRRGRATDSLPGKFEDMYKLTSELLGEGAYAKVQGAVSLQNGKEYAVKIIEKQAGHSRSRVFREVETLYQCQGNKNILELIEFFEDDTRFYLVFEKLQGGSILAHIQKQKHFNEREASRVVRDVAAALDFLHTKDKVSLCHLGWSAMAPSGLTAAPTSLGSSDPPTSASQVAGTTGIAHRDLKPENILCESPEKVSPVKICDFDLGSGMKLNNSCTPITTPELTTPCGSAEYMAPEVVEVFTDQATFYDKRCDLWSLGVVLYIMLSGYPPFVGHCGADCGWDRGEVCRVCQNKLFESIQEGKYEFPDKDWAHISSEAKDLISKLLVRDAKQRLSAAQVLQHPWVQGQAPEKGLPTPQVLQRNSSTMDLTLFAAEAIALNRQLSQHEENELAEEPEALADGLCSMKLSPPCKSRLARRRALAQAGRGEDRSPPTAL
JAK2, sequence (O60674 whole entry, species assumed): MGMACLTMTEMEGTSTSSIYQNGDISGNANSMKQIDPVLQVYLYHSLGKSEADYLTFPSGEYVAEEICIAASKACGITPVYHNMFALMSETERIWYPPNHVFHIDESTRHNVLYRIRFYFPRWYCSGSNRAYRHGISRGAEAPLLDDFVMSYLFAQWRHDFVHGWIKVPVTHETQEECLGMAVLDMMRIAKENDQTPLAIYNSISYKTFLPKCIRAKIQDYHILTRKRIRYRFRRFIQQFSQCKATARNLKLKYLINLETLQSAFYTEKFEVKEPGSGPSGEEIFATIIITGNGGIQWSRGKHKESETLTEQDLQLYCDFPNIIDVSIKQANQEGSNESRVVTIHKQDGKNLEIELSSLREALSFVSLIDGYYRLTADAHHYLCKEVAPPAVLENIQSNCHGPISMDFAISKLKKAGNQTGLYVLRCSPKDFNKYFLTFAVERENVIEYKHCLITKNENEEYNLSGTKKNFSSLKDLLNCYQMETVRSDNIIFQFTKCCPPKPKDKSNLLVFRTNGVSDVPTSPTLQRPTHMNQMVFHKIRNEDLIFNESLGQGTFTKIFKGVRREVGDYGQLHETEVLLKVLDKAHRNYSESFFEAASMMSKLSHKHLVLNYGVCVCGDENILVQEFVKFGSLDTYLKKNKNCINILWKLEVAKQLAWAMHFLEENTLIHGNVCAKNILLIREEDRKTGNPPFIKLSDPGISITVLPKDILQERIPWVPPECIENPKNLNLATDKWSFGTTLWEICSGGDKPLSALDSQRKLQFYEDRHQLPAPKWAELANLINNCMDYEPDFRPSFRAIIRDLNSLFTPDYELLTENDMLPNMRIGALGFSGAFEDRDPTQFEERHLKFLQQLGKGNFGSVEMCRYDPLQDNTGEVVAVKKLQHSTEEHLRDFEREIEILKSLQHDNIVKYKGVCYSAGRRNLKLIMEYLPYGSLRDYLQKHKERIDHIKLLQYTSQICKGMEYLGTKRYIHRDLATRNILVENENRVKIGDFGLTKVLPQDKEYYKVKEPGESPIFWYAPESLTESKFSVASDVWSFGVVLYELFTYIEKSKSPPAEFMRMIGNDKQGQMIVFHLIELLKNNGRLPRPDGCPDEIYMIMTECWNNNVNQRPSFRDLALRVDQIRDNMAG
PAK4, sequence (O96013 whole entry, species assumed): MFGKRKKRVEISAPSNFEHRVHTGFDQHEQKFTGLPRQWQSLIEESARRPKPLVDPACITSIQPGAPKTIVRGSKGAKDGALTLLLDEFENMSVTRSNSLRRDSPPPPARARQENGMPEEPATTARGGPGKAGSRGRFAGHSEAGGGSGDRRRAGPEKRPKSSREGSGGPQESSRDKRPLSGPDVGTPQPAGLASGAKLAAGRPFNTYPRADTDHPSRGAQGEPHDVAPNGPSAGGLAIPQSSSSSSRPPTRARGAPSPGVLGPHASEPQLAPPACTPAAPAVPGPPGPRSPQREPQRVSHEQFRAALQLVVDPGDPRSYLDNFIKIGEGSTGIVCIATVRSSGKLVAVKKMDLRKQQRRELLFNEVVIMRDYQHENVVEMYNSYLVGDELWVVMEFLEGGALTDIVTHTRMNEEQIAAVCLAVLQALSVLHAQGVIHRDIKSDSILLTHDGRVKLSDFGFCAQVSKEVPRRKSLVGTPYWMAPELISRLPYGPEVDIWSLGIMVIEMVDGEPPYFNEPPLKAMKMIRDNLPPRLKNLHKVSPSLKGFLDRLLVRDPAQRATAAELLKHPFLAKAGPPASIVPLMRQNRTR
TLK1, sequence (Q9UKI8 whole entry, species assumed): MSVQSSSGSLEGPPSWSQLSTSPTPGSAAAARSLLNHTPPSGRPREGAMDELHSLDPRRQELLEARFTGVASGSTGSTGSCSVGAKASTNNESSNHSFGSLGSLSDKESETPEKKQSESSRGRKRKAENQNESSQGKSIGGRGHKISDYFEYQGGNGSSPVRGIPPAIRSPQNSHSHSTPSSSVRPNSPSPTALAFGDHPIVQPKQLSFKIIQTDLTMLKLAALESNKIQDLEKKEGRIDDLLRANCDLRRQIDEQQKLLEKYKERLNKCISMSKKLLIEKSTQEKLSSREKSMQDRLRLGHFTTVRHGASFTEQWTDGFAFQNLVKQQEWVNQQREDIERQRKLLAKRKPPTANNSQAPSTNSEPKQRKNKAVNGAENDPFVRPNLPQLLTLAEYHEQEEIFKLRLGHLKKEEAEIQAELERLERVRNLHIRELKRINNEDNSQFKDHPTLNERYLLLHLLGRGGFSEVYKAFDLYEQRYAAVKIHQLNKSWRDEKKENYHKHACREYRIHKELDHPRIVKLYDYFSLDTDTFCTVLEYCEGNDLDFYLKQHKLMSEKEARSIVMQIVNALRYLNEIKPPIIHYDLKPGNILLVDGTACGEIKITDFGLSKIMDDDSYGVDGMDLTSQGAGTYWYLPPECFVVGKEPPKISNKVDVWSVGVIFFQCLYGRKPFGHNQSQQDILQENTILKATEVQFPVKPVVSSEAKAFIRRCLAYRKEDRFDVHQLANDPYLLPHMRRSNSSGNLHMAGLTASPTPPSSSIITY
RIPK2, sequence (O43353 whole entry, species assumed): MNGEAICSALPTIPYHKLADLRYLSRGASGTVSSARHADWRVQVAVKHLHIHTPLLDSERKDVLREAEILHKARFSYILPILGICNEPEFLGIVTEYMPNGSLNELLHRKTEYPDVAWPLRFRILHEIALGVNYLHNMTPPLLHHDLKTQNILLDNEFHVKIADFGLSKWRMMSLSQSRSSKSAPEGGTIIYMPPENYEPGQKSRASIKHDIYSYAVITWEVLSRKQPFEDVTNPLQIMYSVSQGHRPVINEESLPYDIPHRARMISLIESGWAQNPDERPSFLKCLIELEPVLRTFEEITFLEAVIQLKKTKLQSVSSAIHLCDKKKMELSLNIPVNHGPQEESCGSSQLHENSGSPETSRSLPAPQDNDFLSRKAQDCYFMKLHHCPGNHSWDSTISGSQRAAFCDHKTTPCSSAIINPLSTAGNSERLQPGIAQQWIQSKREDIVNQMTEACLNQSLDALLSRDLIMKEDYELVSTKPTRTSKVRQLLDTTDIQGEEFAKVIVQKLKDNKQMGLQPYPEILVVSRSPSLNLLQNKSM
NEK6, sequence (Q9HC98 whole entry, species assumed): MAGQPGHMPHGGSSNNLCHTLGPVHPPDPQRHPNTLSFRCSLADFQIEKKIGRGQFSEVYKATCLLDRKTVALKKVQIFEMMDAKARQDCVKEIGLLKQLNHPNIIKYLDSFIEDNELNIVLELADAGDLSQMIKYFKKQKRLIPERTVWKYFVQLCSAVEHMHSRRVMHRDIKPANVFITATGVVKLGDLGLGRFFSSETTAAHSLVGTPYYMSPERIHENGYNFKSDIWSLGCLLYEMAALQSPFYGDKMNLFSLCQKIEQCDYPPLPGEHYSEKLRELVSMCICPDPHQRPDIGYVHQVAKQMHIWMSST

`Cc1cc(C(C#N)c2ccc(Cl)cc2)c(Cl)cc1NC(=O)c1cc(Cl)ccc1O` (stereo not shown) [ZT-1a, 5-chloro-N-(5-chloro-4-((4-chlorophenyl)(cyano)methyl)-2-methylphenyl)-2-hydroxy-benzamide] gave a remaining activity at 1 µM (HIPK2; 1 μM) of 90 ± 14%, a remaining activity at 10 µM (HIPK2; 10 μM) of 91 ± 4% and a remaining activity at 1 µM (IRAK4; 1 μM) of 127%. For the same compound, the remaining activity at 10 µM (IRAK4; 10 μM) was 127 ± 11%, the remaining activity at 1 µM (PIM3; 1 μM) was 115 ± 12% and the remaining activity at 10 µM (PIM3; 10 μM) was 99 ± 2%. It also gave a remaining activity at 1 µM (PKCγ; 1 μM) of 133 ± 11%, a remaining activity at 10 µM (PKCγ; 10 μM) of 120 ± 8% and a remaining activity at 1 µM (RSK1; 1 μM) of 95 ± 2%. For the same compound, the remaining activity at 10 µM (RSK1; 10 μM) was 87 ± 4%, the remaining activity at 1 µM (MAP4K3; 1 μM) was 134 ± 5% and the remaining activity at 10 µM (MAP4K3; 10 μM) was 88 ± 2%. It also gave a remaining activity at 1 µM (CHK1; 1 μM) of 111 ± 11%, a remaining activity at 10 µM (CHK1; 10 μM) of 109 ± 8% and a remaining activity at 1 µM (TLK1; 1 μM) of 130 ± 13%. The remaining activity at 10 µM (TLK1; 10 μM) was 124 ± 4%, the remaining activity at 1 µM (CK2; 1 μM) was 72 ± 15% and the remaining activity at 10 µM (CK2; 10 μM) was 59 ± 16%. It also gave a remaining activity at 1 µM (JAK2; 1 μM) of 125 ± 6%, a remaining activity at 10 µM (JAK2; 10 μM) of 123 ± 8% and a remaining activity at 1 µM (DYRK3; 1 μM) of 113 ± 6%. The remaining activity at 10 µM (DYRK3; 10 μM) was 56 ± 15%, the remaining activity at 1 µM (IKKb; 1 μM) was 101% and the remaining activity at 10 µM (IKKb; 10 μM) was 78 ± 3%. It also gave a remaining activity at 1 µM (MST3; 1 μM) of 109 ± 8%, a remaining activity at 10 µM (MST3; 10 μM) of 113 ± 15% and a remaining activity at 1 µM (p38g MAPK; 1 μM) of 100 ± 11%. For the same compound, the remaining activity at 10 µM (p38g MAPK; 10 μM) was 100 ± 6%, the remaining activity at 1 µM (ZAP70; 1 μM) was 120 ± 1% and the remaining activity at 10 µM (ZAP70; 10 μM) was 97 ± 9%. The remaining activity at 1 µM (MARK4; 1 μM) was 68 ± 8%, the remaining activity at 10 µM (MARK4; 10 μM) was 59 ± 9% and the remaining activity at 1 µM (PAK4; 1 μM) was 81 ± 16%. The remaining activity at 10 µM (PAK4; 10 μM) was 51 ± 3%, the remaining activity at 1 µM (PKD1; 1 μM) was 89% and the remaining activity at 10 µM (PKD1; 10 μM) was 79 ± 10%. The remaining activity at 1 µM (MAP4K5; 1 μM) was 95 ± 28%, the remaining activity at 10 µM (MAP4K5; 10 μM) was 76 ± 9% and the remaining activity at 1 µM (PKCa; 1 μM) was 97 ± 4%. The remaining activity at 10 µM (PKCa; 10 μM) was 83 ± 2%, the remaining activity at 1 µM (STK33; 1 μM) was 114 ± 7% and the remaining activity at 10 µM (STK33; 10 μM) was 100 ± 5%. For the same compound, the remaining activity at 1 µM (PKCz; 1 μM) was 80 ± 11%, the remaining activity at 10 µM (PKCz; 10 μM) was 122 ± 28% and the remaining activity at 1 µM (PAK6; 1 μM) was 69 ± 2%. For the same compound, the remaining activity at 10 µM (PAK6; 10 μM) was 75 ± 4%, the remaining activity at 1 µM (SIK3; 1 μM) was 104 ± 9% and the remaining activity at 10 µM (SIK3; 10 μM) was 88%. The remaining activity at 1 µM (PDGFRA; 1 μM) was 84 ± 11%, the remaining activity at 10 µM (PDGFRA; 10 μM) was 80 ± 7% and the remaining activity at 1 µM (MNK1; 1 μM) was 78 ± 19%. It also gave a remaining activity at 10 µM (MNK1; 10 μM) of 87 ± 2%, a remaining activity at 1 µM (PDK1; 1 μM) of 92 ± 6% and a remaining activity at 10 µM (PDK1; 10 μM) of 69 ± 17%. The remaining activity at 1 µM (RIPK2; 1 μM) was 128 ± 5%, the remaining activity at 10 µM (RIPK2; 10 μM) was 120 ± 3% and the remaining activity at 1 µM (ULK1; 1 μM) was 87 ± 10%. It also gave a remaining activity at 10 µM (ULK1; 10 μM) of 89 ± 13%, a remaining activity at 1 µM (MELK; 1 μM) of 130 ± 34% and a remaining activity at 10 µM (MELK; 10 μM) of 63 ± 3%. For the same compound, the remaining activity at 1 µM (ABL; 1 μM) was 85 ± 4%, the remaining activity at 10 µM (ABL; 10 μM) was 68 ± 16% and the remaining activity at 1 µM (NEK6; 1 μM) was 107 ± 6%. For the same compound, the remaining activity at 10 µM (NEK6; 10 μM) was 108 ± 1%.
